The values that follow come from patent publication US9809574B2, “Isoindoline or isoquinoline compounds, a process for their preparation and pharmaceutical compositions containing them” (LES LABORATOIRES SERVIER, priority 2013, dated 2017).

Experiment [1] deals with Bcl-2 protein (histag-Bcl-2, UniProtKB P10415) (Homo sapiens (Human), UniProt P10415). Kind of experiment: Inhibition of Bcl-2 by the fluorescence polarisation technique. Format: binding. The following applies: fluorescence polarisation test; incubation for 2 hours; read-out: IC50 (nM) Bcl-2 FP. The text has this:
For partial inhibitors, the percentage fluorescence polarisation inhibition for a given concentration of the test compound is indicated.

The test system of experiment [2] is RS4; 11 leukaemia cell line. Kind of experiment: In vitro cytotoxicity, Microculture Tetrazolium Assay (MTT). The note with it: 11 cells exposed for 48 hours. Format: cell-based. Here is the method: The cytotoxicity studies were carried out on the RS4; 11 leukaemia cell line and on H146 small Cell Lung Carcinoma cell line. The cells are distributed onto microplates and exposed to the test compounds for 48 hours. The cell viability is then quantified by a colorimetric assay, the Microculture Tetrazolium Assay (Cancer Res., 1987, 47, 939-942).

Where a name gives a salt, the structure may show the parent alone. Some results are limits rather than exact numbers.

Bcl-2 protein, sequence (P10415 whole entry): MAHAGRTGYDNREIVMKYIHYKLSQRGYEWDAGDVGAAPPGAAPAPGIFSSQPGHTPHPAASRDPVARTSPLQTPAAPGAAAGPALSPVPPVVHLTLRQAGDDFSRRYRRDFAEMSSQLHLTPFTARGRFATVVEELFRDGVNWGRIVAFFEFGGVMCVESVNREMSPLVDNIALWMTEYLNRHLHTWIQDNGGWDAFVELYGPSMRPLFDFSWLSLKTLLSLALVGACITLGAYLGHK

For `CN(C(=O)c1cc(-c2cc3c(cc2C(=O)N2Cc4ccccc4C[C@H]2CN2CCOCC2)CN(S(=O)(=O)Cc2ccccc2)C3)n2c1CCCC2)c1ccc(O)cc1` [Example 38, N-(4-Hydroxyphenyl)-N-methyl-3-{6-[(3S)-3-(morpholin-4-ylmethyl)-1,2,3,4-tetrahydroisoquinoline-2-carbonyl]-2-phenylmethanesulfonyl-2,3-dihydro-1H-isoindol-5-yl}-5,6,7,8-tetrahydroindolizine-1-carboxamide], the IC50 is 23 nM in experiment [1] and 532 nM in experiment [2] (Homo sapiens).

As for `Cc1c(C(=O)N(C)c2ccc(O)cc2)cc(-c2cc3c(cc2C(=O)N2Cc4ccccc4C[C@H]2C)CN(C(=O)[C@@H](O)c2ccccc2)C3)n1C` [Example 806, N-(4-Hydroxyphenyl)-5-(2-[(2S)-2-hydroxy-2-phenylacetyl]-6-{[(3R)-3-methyl-3,4-dihydroisoquinolin-2(1H)-yl]carbonyl}-2,3-dihydro-1H-isoindol-5-yl)-N,1,2-trimethyl-1H-pyrrole-3-carboxamide], the half-maximal inhibitory concentration (IC50) in experiment [1] is 33 nM; in experiment [2] (Homo sapiens), above 150 nM.

With `CCCCN(CCCC)C(=O)c1cc(-c2cc3c(cc2C(=O)N2Cc4ccccc4C[C@H]2C)CN(C(=O)Cc2ccccc2)CC3)n(C)c1C` [Example 164, N,N-Dibutyl-1,2-dimethyl-5-{7-[(3R)-3-methyl-1,2,3,4-tetrahydroisoquinoline-2-carbonyl]-2-(2-phenylacetyl)-1,2,3,4-tetrahydroisoquinolin-6-yl}-1H-pyrrole-3-carboxamide], the IC50 in experiment [1] is 14 nM; in experiment [2] (Homo sapiens) it was above 150 nM.

Take `CCC(C(=O)N1CCc2cc(-c3cc(C(=O)N(C)c4ccc(O)cc4)c4n3CCCC4)c(C(=O)N3Cc4ccccc4C[C@H]3C)cc2C1)c1ccccc1` (stereo partly drawn) [Example 95, N-(4-Hydroxyphenyl)-N-methyl-3-{7-[(3R)-3-methyl-1,2,3,4-tetrahydroisoquinoline-2-carbonyl]-2-(2-phenylbutanoyl)-1,2,3,4-tetrahydroisoquinolin-6-yl}-5,6,7,8-tetrahydroindolizine-1-carboxamide]: the results for the IC50 in experiment [1] and in experiment [2] (Homo sapiens) were 14 nM and 115 nM, respectively.

Regarding `Cc1c(C(=O)N(C)c2ccc(O)cc2)cc(-c2cc3c(cc2C(=O)N2Cc4ccccc4C[C@H]2CCN2CCOCC2)CN(C(=O)Cc2ccccc2)CC3)n1C` [Example 779, N-(4-Hydroxyphenyl)-N,1,2-trimethyl-5-{7-[(3S)-3-[2-(morpholin-4-yl)ethyl]-1,2,3,4-tetrahydroisoquinoline-2-carbonyl]-2-(2-phenylacetyl)-1,2,3,4-tetrahydroisoquinolin-6-yl}-1H-pyrrole-3-carboxamide], the IC50 in experiment [1] is 2.9 nM; in experiment [2] (Homo sapiens), 24 nM.

Take `Cc1c(C(=O)N(C)c2ccc(O)cc2)cc(-c2cc3c(cc2C(=O)N2Cc4ccccc4C[C@H]2C)CN(C(=O)OC2CCS(=O)(=O)C2)C3)n1C` (stereo partly drawn) [Example 157, 1,1-Dioxo-1λ^6-thiolan-3-yl 5-{4-[(4-hydroxyphenyl)(methyl)carbamoyl]-1,5-dimethyl-1H-pyrrol-2-yl}-6-[(3R)-3-methyl-1,2,3,4-tetrahydroisoquinoline-2-carbonyl]-2,3-dihydro-1H-isoindole-2-carboxylate]: the IC50 in experiment [1] was 21 nM; in experiment [2] (Homo sapiens) it was above 600 nM.

Consider `CN(C(=O)c1cc(-c2cc3c(cc2C(=O)N2Cc4ccccc4C[C@H]2CN2CCOCC2)CN(C(=O)Oc2ccc(C(F)(F)F)cc2)CC3)n2c1CCCC2)c1ccc(O)cc1` [Example 124, 4-(Trifluoromethyl)phenyl 6-{1-[(4-hydroxyphenyl)(methyl)carbamoyl]-5,6,7,8-tetrahydroindolizin-3-yl}-7-[(3S)-3-(morpholin-4-ylmethyl)-1,2,3,4-tetrahydroisoquinoline-2-carbonyl]-1,2,3,4-tetrahydroisoquinoline-2-carboxylate], for which the values for the IC50 in experiment [1] and in experiment [2] (Homo sapiens) were 12 nM and 50 nM, respectively.

`C[C@@H]1Cc2ccccc2CN1C(=O)c1cc2c(cc1-c1cc(C(=O)N(c3ccccc3)c3ccc(O)cc3)c3n1CCCC3)CNC2` [Example 44, N-(4-Hydroxyphenyl)-3-{6-[(3R)-3-methyl-1,2,3,4-tetrahydroisoquinoline-2-carbonyl]-2,3-dihydro-1H-isoindol-5-yl}-N-phenyl-5,6,7,8-tetrahydroindolizine-1-carboxamide]: the IC50 came out at 13 nM in experiment [1] and 443 nM in experiment [2] (Homo sapiens).

As for `CN(C(=O)c1cc(-c2cc3c(cc2C(=O)N2Cc4ccccc4C[C@H]2CN2CCOCC2)CN(C(=O)Oc2ccc(-n4ccnc4)cc2)CC3)n2c1CCCC2)c1ccc(O)cc1` [Example 143, 4-(1H-imidazol-1-yl)phenyl 6-{1-[(4-hydroxyphenyl)(methyl)carbamoyl]-5,6,7,8-tetrahydroindolizin-3-yl}-7-[(3S)-3-(morpholin-4-ylmethyl)-1,2,3,4-tetrahydroisoquinoline-2-carbonyl]-1,2,3,4-tetrahydroisoquinoline-2-carboxylate], the IC50 in experiment [1] was determined as 5.5 nM; in experiment [2] (Homo sapiens) it was 9.3 nM.

As for `Cc1c(C(=O)N(C)c2ccc(O)cc2)cc(-c2cc3c(cc2C(=O)N2Cc4ccccc4C[C@H]2CN2CCOCC2)CN(C(=O)CCC2CCCCC2)CC3)n1C` [Example 132, 5-[2-(3-Cyclohexylpropanoyl)-7-[(3S)-3-(morpholin-4-ylmethyl)-1,2,3,4-tetrahydroisoquinoline-2-carbonyl]-1,2,3,4-tetrahydroisoquinolin-6-yl]-N-(4-hydroxyphenyl)-N,1,2-trimethyl-1H-pyrrole-3-carboxamide], the IC50 in experiment [1] came out at 4.6 nM; in experiment [2] (Homo sapiens), 32 nM.

As to `CN(C(=O)c1cc(-c2cc3c(cc2C(=O)N2Cc4ccccc4C[C@H]2CN2CCOCC2)CN(C(=O)COc2ccccc2)C3)n2c1CCCC2)c1ccc(O)cc1` [Example 156, N-(4-Hydroxyphenyl)-N-methyl-3-{6-[(3S)-3-(morpholin-4-ylmethyl)-1,2,3,4-tetrahydroisoquinoline-2-carbonyl]-2-(2-phenoxyacetyl)-2,3-dihydro-1H-isoindol-5-yl}-5,6,7,8-tetrahydroindolizine-1-carboxamide], the IC50 in experiment [1] was found to be 6.8 nM; in experiment [2] (Homo sapiens), 121 nM.

Take `Cc1ccc(OC(=O)N2CCc3cc(-c4cc(C(=O)N(c5ccc(O)cc5)c5cc(C#N)n(C)c5C)c(C)n4C)c(C(=O)N4Cc5ccccc5C[C@H]4CN4CCOCC4)cc3C2)cc1` [Example 805, Tolyl 6-[4-[(5-cyano-1,2-dimethyl-1H-pyrrol-3-yl)-(4-hydroxyphenyl)carbamoyl]-1,5-dimethyl-1H-pyrrol-2-yl]-7-[(3S)-3-(morpholinomethyl)-3,4-dihydro-1H-isoquinoline-2-carbonyl]-3,4-dihydro-1H-isoquinoline-2-carboxylate hydrochloride]: the results for the IC50 in experiment [1] and in experiment [2] were 3.1 nM and 0.12 nM, respectively.

`Cc1c(C(=O)N(C)c2ccc(O)cc2)cc(-c2cc3c(cc2C(=O)N2Cc4ccccc4C[C@H]2C)CN(C(=O)Oc2ccccc2OCCN(C)C)CC3)n1C` [Example 392, 2-[2-(Dimethylamino)ethoxy]phenyl 6-{4-[(4-hydroxyphenyl) (methyl)carbamoyl]-1,5-dimethyl-1H-pyrrol-2-yl}-7-[(3R)-3-methyl-1,2,3,4-tetrahydroisoquinoline-2-carbonyl]-1,2,3,4-tetrahydroisoquinoline-2-carboxylate]: the half-inhibitory concentration (IC50) amounted to 2 nM in experiment [1] and 14 nM in experiment [2] (Homo sapiens).

Turning to `C[C@@H]1Cc2ccccc2CN1C(=O)c1cc2c(cc1-c1cc(C(=O)N(C)c3ccc(O)cc3)c3n1CCCC3)CCN(C(=O)Cc1ccc(C#N)cc1)C2` [Example 53, 3-{2-[2-(4-Cyanophenyl)acetyl]-7-[(3R)-3-methyl-1,2,3,4-tetrahydroisoquinoline-2-carbonyl]-1,2,3,4-tetrahydroisoquinolin-6-yl}-N-(4-hydroxyphenyl)-N-methyl-5,6,7,8-tetrahydroindolizine-1-carboxamide], the IC50 in experiment [1] turned out to be 2.4 nM; in experiment [2] (Homo sapiens) it was 5 nM.

Turning to `C[C@@H]1Cc2ccccc2CN1C(=O)c1cc2c(cc1-c1cc(C(=O)N(C)c3ccc(O)cc3)c3n1CCCC3)CN(C(=O)COc1cccc(Cl)c1)C2` [Example 50, 3-{2-[2-(3-Chlorophenoxy)acetyl]-6-[(3R)-3-methyl-1,2,3,4-tetrahydroisoquinoline-2-carbonyl]-2,3-dihydro-1H-isoindol-5-yl}-N-(4-hydroxyphenyl)-N-methyl-5,6,7,8-tetrahydroindolizine-1-carboxamide], the IC50 in experiment [1] is 18 nM; in experiment [2] (Homo sapiens), 26 nM.

Turning to `C[C@@H]1Cc2ccccc2CN1C(=O)c1cc2c(cc1-c1cc(C(=O)N(C)c3ccc(O)cc3)c3n1CCCC3)CN(CCC1CCCCC1)C2` [Example 29, 3-[2-(2-Cyclohexylethyl)-6-[(3R)-3-methyl-1,2,3,4-tetrahydroisoquinoline-2-carbonyl]-2,3-dihydro-1H-isoindol-5-yl]-N-(4-hydroxyphenyl)-N-methyl-5,6,7,8-tetrahydroindolizine-1-carboxamide], the IC50 was 28 nM in experiment [1] and above 150 nM in experiment [2] (Homo sapiens).

`C[C@@H]1Cc2ccccc2CN1C(=O)c1cc2c(cc1-c1cc(C(=O)N(C)c3ccc(O)cc3)c3n1CCCC3)CCN(C(=O)[C@H](C)c1ccccc1)C2` [Example 91, N-(4-Hydroxyphenyl)-N-methyl-3-{7-[(3R)-3-methyl-1,2,3,4-tetrahydroisoquinoline-2-carbonyl]-2-[(2R)-2-phenylpropanoyl]-1,2,3,4-tetrahydroisoquinolin-6-yl}-5,6,7,8-tetrahydroindolizine-1-carboxamide]: the IC50 in experiment [1] was 7 nM; in experiment [2] (Homo sapiens), 73 nM.
